For assay [1], the target named is Calcium/calmodulin-dependent protein kinase kinase 1 (Homo sapiens) (UniProt Q8N5S9). The conditions noted are these: at 10 µM.
Assay [2] has as its target T1, Muscle, skeletal receptor tyrosine-protein kinase (Homo sapiens) (UniProt O15146).
T1 sequence (whole entry): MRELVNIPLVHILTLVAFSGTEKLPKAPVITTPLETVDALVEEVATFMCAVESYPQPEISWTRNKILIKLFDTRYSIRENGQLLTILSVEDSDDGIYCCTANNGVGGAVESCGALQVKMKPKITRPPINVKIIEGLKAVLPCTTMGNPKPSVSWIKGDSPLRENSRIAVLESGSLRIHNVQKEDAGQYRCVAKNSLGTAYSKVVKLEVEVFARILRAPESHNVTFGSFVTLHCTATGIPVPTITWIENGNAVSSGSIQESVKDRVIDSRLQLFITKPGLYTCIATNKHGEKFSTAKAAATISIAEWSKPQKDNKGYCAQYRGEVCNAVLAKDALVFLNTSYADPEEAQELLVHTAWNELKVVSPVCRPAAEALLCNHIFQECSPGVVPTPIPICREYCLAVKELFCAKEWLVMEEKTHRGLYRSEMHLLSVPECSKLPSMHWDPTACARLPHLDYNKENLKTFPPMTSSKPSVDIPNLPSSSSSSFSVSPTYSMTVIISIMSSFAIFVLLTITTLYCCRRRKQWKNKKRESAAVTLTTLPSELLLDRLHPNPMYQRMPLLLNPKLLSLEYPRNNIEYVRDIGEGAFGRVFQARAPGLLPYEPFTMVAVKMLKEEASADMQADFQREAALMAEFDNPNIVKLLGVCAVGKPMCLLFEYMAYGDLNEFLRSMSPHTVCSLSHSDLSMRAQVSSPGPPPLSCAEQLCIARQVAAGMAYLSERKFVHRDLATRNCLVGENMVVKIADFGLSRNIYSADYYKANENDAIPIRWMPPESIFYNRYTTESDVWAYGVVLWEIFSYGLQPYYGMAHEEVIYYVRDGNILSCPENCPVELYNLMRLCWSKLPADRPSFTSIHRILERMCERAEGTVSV
As to the kind of experiment: Selectivity interaction (KinomeScan (DiscoverX)) EUB0000655a MUSK. The conditions noted are these: at 10 µM.

Assay [3] concerns the target T2, Histone-arginine methyltransferase CARM1 (Homo sapiens) (UniProt Q86X55).
T2 sequence (whole entry): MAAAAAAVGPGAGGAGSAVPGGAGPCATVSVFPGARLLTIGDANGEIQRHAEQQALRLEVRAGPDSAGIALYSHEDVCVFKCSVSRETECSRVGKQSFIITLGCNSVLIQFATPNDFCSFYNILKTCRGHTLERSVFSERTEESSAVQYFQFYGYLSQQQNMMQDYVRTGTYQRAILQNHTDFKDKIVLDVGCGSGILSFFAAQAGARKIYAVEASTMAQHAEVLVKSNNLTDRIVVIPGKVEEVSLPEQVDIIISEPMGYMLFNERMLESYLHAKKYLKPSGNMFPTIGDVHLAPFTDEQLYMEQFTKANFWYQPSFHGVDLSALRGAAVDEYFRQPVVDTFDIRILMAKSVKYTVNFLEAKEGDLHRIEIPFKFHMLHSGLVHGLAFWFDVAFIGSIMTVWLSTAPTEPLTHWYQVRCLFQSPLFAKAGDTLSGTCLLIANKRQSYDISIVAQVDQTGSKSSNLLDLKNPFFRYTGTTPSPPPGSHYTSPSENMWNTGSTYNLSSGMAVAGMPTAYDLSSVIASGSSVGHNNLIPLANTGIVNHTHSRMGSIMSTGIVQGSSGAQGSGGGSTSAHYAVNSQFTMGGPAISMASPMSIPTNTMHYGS
The conditions noted are these: MM1.S, at 3 µM.

Assay [4] concerns the target T3, Mitogen-activated protein kinase kinase kinase 7 (Homo sapiens) (UniProt O43318).
T3 sequence (whole entry): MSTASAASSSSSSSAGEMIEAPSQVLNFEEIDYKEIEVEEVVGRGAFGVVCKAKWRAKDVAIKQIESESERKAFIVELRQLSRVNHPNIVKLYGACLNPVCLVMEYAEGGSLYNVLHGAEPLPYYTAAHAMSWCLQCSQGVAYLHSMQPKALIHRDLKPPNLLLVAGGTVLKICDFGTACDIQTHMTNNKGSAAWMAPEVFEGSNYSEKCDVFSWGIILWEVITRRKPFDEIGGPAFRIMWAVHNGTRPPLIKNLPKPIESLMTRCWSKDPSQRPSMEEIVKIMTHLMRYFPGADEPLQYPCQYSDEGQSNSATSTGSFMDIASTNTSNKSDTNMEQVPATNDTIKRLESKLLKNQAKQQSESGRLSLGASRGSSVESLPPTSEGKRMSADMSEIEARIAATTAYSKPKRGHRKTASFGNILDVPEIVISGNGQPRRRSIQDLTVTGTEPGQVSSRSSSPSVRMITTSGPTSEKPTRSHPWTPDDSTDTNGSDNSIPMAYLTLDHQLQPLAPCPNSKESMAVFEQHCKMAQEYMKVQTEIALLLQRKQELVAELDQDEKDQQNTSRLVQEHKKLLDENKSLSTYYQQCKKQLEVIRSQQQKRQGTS
As to the kind of experiment: Selectivity interaction (KinomeScan (DiscoverX)) EUB0000607a MAP3K7. The conditions noted are these: at 10 µM.

The target of assay [5] is Serine/threonine-protein kinase WNK2 (Homo sapiens) (UniProt Q9Y3S1). As to the kind of experiment: Selectivity interaction (ActivX KiNativ screen (kinase selectivity in THP-1 cell lysates)) EUB0000639a WNK2. The assay is classed as subcellular. The conditions noted are these: lysate, at 5 µM.
Assay [6] addresses T4, Serine/threonine-protein kinase NLK (Homo sapiens) (UniProt Q9UBE8).
T4 sequence (whole entry): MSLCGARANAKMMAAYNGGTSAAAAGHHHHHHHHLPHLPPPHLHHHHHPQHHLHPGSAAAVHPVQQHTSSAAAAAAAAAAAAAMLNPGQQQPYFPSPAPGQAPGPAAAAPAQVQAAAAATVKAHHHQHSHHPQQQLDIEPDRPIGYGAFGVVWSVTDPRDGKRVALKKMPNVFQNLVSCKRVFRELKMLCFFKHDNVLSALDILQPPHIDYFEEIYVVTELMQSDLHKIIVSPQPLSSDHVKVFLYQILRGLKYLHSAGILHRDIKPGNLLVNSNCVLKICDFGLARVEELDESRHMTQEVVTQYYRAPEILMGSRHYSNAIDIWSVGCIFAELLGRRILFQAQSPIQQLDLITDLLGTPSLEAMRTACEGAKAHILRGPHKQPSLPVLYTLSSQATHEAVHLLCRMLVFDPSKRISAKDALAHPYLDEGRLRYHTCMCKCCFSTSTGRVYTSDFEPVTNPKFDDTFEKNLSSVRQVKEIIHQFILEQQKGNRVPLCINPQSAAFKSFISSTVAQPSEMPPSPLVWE
Briefly: Selectivity interaction (KinomeScan (DiscoverX)) EUB0001619a NLK. The conditions noted are these: at 1 µM.

Assay [7] in a line: Selectivity interaction (Kinase panel (KiNativ target engagement assay in Jurkat cells)) EUB0001635a STLK6. The conditions noted are these: Selectivity number of off-targets 0; Selectivity number of targets 233; Source Knowledge https://www.sciencedirect.com/science/article/pii/S2451945619300674?via%3Dihub; at 1 µM.

The structures appear in SMILES notation.

Here are results for seven compounds from ChEMBL document CHEMBL5465560, “Selectivity Literature for EUbOPEN Chemogenomic Library” (2024).

Serine/threonine-protein kinase WNK2 (Homo sapiens), sequence (Q9Y3S1 whole entry): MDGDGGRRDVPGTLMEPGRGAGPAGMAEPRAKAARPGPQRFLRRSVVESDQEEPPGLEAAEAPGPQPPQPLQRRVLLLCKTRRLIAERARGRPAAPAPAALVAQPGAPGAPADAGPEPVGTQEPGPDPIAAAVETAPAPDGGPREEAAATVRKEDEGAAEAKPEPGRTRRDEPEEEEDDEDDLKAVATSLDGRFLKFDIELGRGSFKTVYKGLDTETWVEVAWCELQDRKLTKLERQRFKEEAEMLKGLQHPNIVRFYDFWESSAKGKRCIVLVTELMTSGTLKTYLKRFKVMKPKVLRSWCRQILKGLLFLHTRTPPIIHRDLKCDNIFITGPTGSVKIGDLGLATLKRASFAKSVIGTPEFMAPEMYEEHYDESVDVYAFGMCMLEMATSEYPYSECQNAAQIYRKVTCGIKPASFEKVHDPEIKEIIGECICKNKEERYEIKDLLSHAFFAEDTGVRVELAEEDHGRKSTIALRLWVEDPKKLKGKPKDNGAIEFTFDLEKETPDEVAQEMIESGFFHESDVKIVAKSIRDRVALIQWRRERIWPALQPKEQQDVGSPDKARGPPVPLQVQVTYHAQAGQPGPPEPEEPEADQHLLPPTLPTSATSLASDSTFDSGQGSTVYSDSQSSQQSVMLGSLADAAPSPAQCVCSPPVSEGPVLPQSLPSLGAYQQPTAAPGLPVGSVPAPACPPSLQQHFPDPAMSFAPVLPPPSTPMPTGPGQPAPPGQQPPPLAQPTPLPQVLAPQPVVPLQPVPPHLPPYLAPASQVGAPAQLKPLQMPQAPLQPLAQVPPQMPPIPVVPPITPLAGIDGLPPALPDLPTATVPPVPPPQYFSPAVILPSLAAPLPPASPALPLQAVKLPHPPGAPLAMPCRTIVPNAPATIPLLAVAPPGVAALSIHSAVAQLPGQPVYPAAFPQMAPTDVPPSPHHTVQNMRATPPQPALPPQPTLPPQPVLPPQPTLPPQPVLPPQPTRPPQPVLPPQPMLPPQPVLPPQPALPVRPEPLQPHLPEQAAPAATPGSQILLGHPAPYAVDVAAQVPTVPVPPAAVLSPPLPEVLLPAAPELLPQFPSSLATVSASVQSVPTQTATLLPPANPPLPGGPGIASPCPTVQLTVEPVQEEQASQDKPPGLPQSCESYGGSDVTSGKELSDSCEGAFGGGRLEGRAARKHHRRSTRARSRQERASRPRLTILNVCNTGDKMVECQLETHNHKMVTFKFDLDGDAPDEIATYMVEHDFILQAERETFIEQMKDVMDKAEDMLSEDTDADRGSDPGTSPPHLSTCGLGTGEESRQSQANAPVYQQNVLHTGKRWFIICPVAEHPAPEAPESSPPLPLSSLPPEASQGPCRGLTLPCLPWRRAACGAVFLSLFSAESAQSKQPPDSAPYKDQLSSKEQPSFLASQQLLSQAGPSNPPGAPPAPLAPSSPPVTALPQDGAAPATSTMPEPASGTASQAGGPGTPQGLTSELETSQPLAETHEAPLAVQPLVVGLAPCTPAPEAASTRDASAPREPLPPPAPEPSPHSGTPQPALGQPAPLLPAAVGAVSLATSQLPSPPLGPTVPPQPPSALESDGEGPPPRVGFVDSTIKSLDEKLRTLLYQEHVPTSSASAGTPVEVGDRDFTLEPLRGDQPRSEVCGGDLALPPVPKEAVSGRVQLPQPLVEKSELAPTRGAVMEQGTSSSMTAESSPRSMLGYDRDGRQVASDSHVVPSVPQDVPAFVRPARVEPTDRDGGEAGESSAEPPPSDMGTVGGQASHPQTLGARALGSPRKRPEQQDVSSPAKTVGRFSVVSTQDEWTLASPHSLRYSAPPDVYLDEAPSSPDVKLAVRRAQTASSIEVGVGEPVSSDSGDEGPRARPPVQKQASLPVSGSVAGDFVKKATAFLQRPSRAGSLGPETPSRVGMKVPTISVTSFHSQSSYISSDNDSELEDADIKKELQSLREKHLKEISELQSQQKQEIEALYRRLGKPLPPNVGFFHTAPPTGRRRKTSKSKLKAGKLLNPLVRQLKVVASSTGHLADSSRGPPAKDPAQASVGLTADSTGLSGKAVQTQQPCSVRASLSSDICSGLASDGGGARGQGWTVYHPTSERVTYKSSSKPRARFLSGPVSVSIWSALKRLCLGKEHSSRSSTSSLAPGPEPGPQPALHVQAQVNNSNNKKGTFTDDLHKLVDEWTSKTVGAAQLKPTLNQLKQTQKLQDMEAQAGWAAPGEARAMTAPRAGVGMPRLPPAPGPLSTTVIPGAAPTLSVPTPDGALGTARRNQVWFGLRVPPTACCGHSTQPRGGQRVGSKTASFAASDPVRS
Calcium/calmodulin-dependent protein kinase kinase 1 (Homo sapiens), sequence (Q8N5S9 whole entry, looked up): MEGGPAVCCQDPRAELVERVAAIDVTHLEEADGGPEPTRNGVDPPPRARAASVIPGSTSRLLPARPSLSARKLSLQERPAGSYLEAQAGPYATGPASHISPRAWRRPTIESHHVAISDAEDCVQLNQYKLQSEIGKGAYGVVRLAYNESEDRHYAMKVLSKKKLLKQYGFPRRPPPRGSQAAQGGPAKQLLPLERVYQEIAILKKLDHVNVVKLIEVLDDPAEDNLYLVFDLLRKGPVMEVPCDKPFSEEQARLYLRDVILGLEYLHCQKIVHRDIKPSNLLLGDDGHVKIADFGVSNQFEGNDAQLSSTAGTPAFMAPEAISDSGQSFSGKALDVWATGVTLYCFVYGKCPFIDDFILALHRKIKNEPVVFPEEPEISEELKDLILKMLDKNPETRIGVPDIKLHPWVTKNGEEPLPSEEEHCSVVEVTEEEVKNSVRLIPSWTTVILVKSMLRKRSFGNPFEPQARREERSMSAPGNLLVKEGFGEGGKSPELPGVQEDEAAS

On to `CCN(CC)CCCCNc1ncc2cc(-c3cc(OC)cc(OC)c3)c(NC(=O)NC(C)(C)C)nc2n1`, for which the % of control in assay [1] turned out to be 100%.

In turn, `CN(C)CCOc1ccc(-c2nc(-c3ccncc3)c(-c3ccc4c(c3)CC/C4=N\O)[nH]2)cc1` had a % of control in assay [2] of 98%.

As to `CNCCN1CCC(c2cc(CN(C)C(=O)c3cccc(Oc4ccccc4)c3)ccn2)CC1`, the % of growth rate in assay [3] was -31%.

Take `CNC(=O)Nc1ccc(-c2nc(N3CC4CCC(C3)O4)c3cnn(C4CCC5(CC4)OCCO5)c3n2)cc1`: the % of control in assay [4] is 98%.

For `CC[C@@H]1[C@H](F)C(=O)N[C@@H]1COc1nccc2cc(C(N)=O)c(OC)cc12` [ZIMLOVISERTIB], the % of inhibition in assay [5] is -14.5%.

Turning to `N#Cc1cccc(-c2c[nH]c3ncnc(N4CCOCC4)c23)c1`, in assay [6], the % of control was 85%.

Regarding `C=CC(=O)Nc1ccc(C(=O)Nc2[nH]nc3c2CN(C(=O)N[C@H](CN(C)C)c2ccccc2)C3(C)C)cc1`, the “% of engagement” value in assay [7] was -0.5%.
